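Method: 48-hour compound exposure of cells in 96-well plates, five concentrations, linear interpolation of endpoints. GI50 = concentration required for 50% inhibition of growth.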 Active and inactive are the calls of the source. Rule as the data show it: active = GI50 up to about 1.1 µM and inactive = higher.
How the values were obtained:
Experiment in all cases: NCI-60 cell line screen, 48 h
Malme-3M = system: Malme-3M
MOLT-4 = system: MOLT-4
COLO 205 = system: COLO 205
OVCAR-5 = system: OVCAR-5
IGROV-1 = system: IGROV-1
MDA-MB-231 = system: MDA-MB-231
HCT-15 = system: HCT-15
M14 = system: M14
NCI-H226 = system: NCI-H226
SF-268 = system: SF-268
SNB-19 = system: SNB-19
DU-145 = system: DU-145
EKVX = system: EKVX
SN12C = system: SN12C
CAKI-1 = system: CAKI-1
SNB-75 = system: SNB-75
A498 = system: A498
HL-60 = system: HL-60
SR = system: SR
KM12 = system: KM12

Compound | GI50 (Malme-3M) | GI50 (MOLT-4) | GI50 (COLO 205) | GI50 (OVCAR-5) | GI50 (IGROV-1) | GI50 (MDA-MB-231) | GI50 (HCT-15) | GI50 (M14) | GI50 (NCI-H226) | GI50 (SF-268) | GI50 (SNB-19) | GI50 (DU-145) | GI50 (EKVX) | GI50 (SN12C) | GI50 (CAKI-1) | GI50 (SNB-75) | GI50 (A498) | GI50 (HL-60) | GI50 (SR) | GI50 (KM12)
O=C(c1ccccc1)c1ccc(C(c2c(O)c3ccccc3oc2=O)c2c(O)c3ccccc3oc2=O)cc1 | 17.9 µM (inactive) | 19.5 µM (inactive) | 31.7 µM (inactive) | 23.4 µM (inactive) | 23.3 µM (inactive) | 26.7 µM (inactive) | 30.5 µM | 24.7 µM (inactive) | 23.3 µM (inactive) | 22.5 µM (inactive) | 19.6 µM (inactive) | 31.2 µM (inactive) | 28 µM (inactive) | 28.4 µM (inactive) | 16.8 µM (inactive) | 19.1 µM (inactive) | 24.5 µM (inactive) | 34.1 µM (inactive) | 20.1 µM (inactive) | 18.7 µM (inactive)
COC(=O)/C=C1/OC(c2ccc(C)cc2)=C(Cl)C1=O | 17.7 µM (inactive) | 4.23 µM (inactive) | 11.2 µM (inactive) | 19.1 µM (inactive) | 16.5 µM (inactive) | 16.9 µM (inactive) | 9.25 µM | 18.1 µM (inactive) | 23 µM (inactive) | 16.4 µM (inactive) | 22.2 µM (inactive) | 17.7 µM (inactive) | 21.3 µM (inactive) | 17.9 µM (inactive) | 16 µM (inactive) | 16.7 µM (inactive) | 17.9 µM (inactive) | 3.31 µM (inactive) | 0.489 µM (active) | 14.6 µM (inactive)
CC(C)=CCC\C(C)=C/C=C/C(C)=C\C=C\C(C)=C/C=C/C=C(C)\C=C\C=C(C)/C=C/C=C(/C)CCC=C(C)C | > 100 µM (inactive) | > 100 µM (inactive) | > 100 µM (inactive) | > 100 µM (inactive) | > 100 µM (inactive) | > 100 µM (inactive) | > 100 µM | > 100 µM (inactive) | > 100 µM (inactive) | > 100 µM (inactive) | > 100 µM (inactive) | > 100 µM (inactive) | > 100 µM (inactive) | > 100 µM (inactive) | > 100 µM (inactive) | > 100 µM (inactive) | > 100 µM (inactive) | > 100 µM (inactive) | > 100 µM (inactive) | > 100 µM (inactive)
Cc1nc2ccccc2c(=O)n1/N=C(\N=N\c1cc(Cl)ccc1Cl)c1ccccc1 | 41 µM (inactive) | 35 µM (inactive) | 61.1 µM (inactive) | > 100 µM (inactive) | 44.6 µM (inactive) | > 100 µM (inactive) | 31.2 µM | 54.7 µM (inactive) | 43.1 µM (inactive) | 58.6 µM (inactive) | 29 µM (inactive) | > 100 µM (inactive) | 20.7 µM (inactive) | > 54.2 µM (inactive) | > 57.3 µM (inactive) | 16.1 µM (inactive) | > 94.2 µM (inactive) | 58.5 µM (inactive) | 44.8 µM (inactive) | 10.3 µM (inactive)
Cc1ccc(C(=O)N/N=C(\N=N\c2ccc([N+](=O)[O-])cc2)c2ccc(N(CCC#N)CCC#N)cc2C)cc1 | > 100 µM (inactive) | 57.3 µM (inactive) | 50 µM (inactive) | > 100 µM (inactive) | 66.8 µM (inactive) | > 100 µM (inactive) | > 100 µM | 58.3 µM (inactive) | 31.3 µM (inactive) | > 100 µM (inactive) | > 100 µM (inactive) | 97.1 µM (inactive) | > 100 µM (inactive) | > 100 µM (inactive) | > 100 µM (inactive) | 43.7 µM (inactive) | 64.9 µM (inactive) | 30.2 µM (inactive) | 63.8 µM (inactive) | 39.5 µM (inactive)
CC(=O)OC1CCC2(C)C(=CCC3C2CCC2(C)C3CC3OC4(CCC(C)CN4)C(C)C32)C1 (stereo not given) | > 100 µM (inactive) | > 100 µM (inactive) | > 100 µM (inactive) | > 100 µM (inactive) | > 100 µM (inactive) | > 100 µM (inactive) | > 100 µM | > 100 µM (inactive) | > 100 µM (inactive) | > 100 µM (inactive) | > 100 µM (inactive) | > 100 µM (inactive) | > 100 µM (inactive) | > 100 µM (inactive) | > 100 µM (inactive) | > 100 µM (inactive) | > 100 µM (inactive) | > 100 µM (inactive) | 80.2 µM (inactive) | > 100 µM (inactive)
Cc1ccc(S(=O)(=O)NC(=O)NC2=NC(C)(C)N(c3ccc(Cl)c(Cl)c3)C(N)=N2)cc1 | 4.01 µM (inactive) | 7.43 µM (inactive) | 10.2 µM (inactive) | > 100 µM (inactive) | 19 µM (inactive) | 7.98 µM (inactive) | 61.2 µM | 17.6 µM (inactive) | 67.8 µM (inactive) | 20.5 µM (inactive) | 97.9 µM (inactive) | 64.4 µM (inactive) | > 100 µM (inactive) | 20.6 µM (inactive) | 49.5 µM (inactive) | 31.6 µM (inactive) | > 100 µM (inactive) | 29.5 µM (inactive) | 8.75 µM (inactive) | 65.8 µM (inactive)
c1ccc(COc2ccc(C[P+](c3ccccc3)(c3ccccc3)c3ccccc3)cc2)cc1 | 0.361 µM (active) | 0.285 µM (active) | 0.129 µM (active) | 0.269 µM (active) | 0.294 µM (active) | 0.776 µM (active) | 2.82 µM | 0.366 µM (active) | 0.504 µM (active) | 0.261 µM (active) | 0.354 µM (active) | 0.304 µM (active) | 0.233 µM (active) | 0.305 µM (active) | 6.79 µM (inactive) | 0.148 µM (active) | 1.1 µM (active) | 0.0682 µM (active) | 0.46 µM (active) | 0.191 µM (active)
CC(=O)OC/C=C/Cn1nc(Br)c(=O)[nH]c1=O | > 100 µM (inactive) | > 100 µM (inactive) | > 100 µM (inactive) | > 100 µM (inactive) | > 100 µM (inactive) | > 100 µM (inactive) | > 100 µM | > 100 µM (inactive) | > 100 µM (inactive) | > 100 µM (inactive) | > 100 µM (inactive) | > 100 µM (inactive) | > 100 µM (inactive) | > 100 µM (inactive) | > 100 µM (inactive) | > 100 µM (inactive) | > 100 µM (inactive) | > 100 µM (inactive) | > 100 µM (inactive) | > 100 µM (inactive)
COc1ccc2c(c1)c(=O)c1c(NCCN(C)C)ccc3c(=O)n(CCN(C)C)c(=O)n2c31 | 0.29 µM (active) | < 0.01 µM (active) | 0.0293 µM (active) | 0.254 µM (active) | < 0.0232 µM (active) | 0.191 µM (active) | < 0.0223 µM | 0.159 µM (active) | 0.163 µM (active) | 0.114 µM (active) | 0.206 µM (active) | 0.0883 µM (active) | 0.124 µM (active) | 0.0298 µM (active) | 0.0283 µM (active) | 0.173 µM (active) | 0.211 µM (active) | 0.101 µM (active) | < 0.01 µM (active) | 0.0815 µM (active)
Cc1c(CCCl)c(N=[N+]=[N-])n2c(nc3ccccc32)c1C#N | 1.45 µM (inactive) | 0.249 µM (active) | 1.07 µM (active) | 1.94 µM (inactive) | 1.01 µM (active) | 1.42 µM (inactive) | 1.3 µM | 1.25 µM (inactive) | 1.82 µM (inactive) | 2.22 µM (inactive) | 2.77 µM (inactive) | 2.24 µM (inactive) | 1.87 µM (inactive) | 1.71 µM (inactive) | 1.39 µM (inactive) | 1.46 µM (inactive) | 1.64 µM (inactive) | 0.348 µM (active) | 0.311 µM (active) | 1.66 µM (inactive)
NC(=O)c1ccc2c(c1)S(=O)(=O)c1ccccc1C2=O | > 100 µM (inactive) | > 100 µM (inactive) | > 100 µM (inactive) | > 100 µM (inactive) | > 100 µM (inactive) | 65.2 µM (inactive) | > 100 µM | > 100 µM (inactive) | > 100 µM (inactive) | 35.9 µM (inactive) | > 100 µM (inactive) | > 100 µM (inactive) | 10 µM (inactive) | > 100 µM (inactive) | > 100 µM (inactive) | 46.8 µM (inactive) | > 100 µM (inactive) | > 100 µM (inactive) | > 100 µM (inactive) | > 100 µM (inactive)
CC(C)(C)c1cc(C2COC(=O)COCCOCC(=O)OCCOCCO2)cc(C(C)(C)C)c1O (stereo not given) | > 100 µM (inactive) | > 100 µM (inactive) | 32.5 µM (inactive) | 21.7 µM (inactive) | 72.8 µM (inactive) | 46.6 µM (inactive) | 50.2 µM | 42.1 µM (inactive) | > 100 µM (inactive) | 34 µM (inactive) | > 100 µM (inactive) | 19.5 µM (inactive) | > 95.1 µM (inactive) | 21.8 µM (inactive) | 18 µM (inactive) | 20.9 µM (inactive) | > 80.5 µM (inactive) | 39.2 µM (inactive) | 21.8 µM (inactive) | > 100 µM (inactive)
CC(=O)OC1=CC2(OC(C)=O)CC(C)(C)C1C1C(=O)C=CC(=O)C12 (stereo not given) | 17.6 µM (inactive) | > 63.8 µM (inactive) | > 42.5 µM (inactive) | > 100 µM (inactive) | > 50.7 µM (inactive) | 54 µM (inactive) | > 55.6 µM | > 79.3 µM (inactive) | 29.4 µM (inactive) | > 63 µM (inactive) | > 100 µM (inactive) | > 100 µM (inactive) | > 68.9 µM (inactive) | > 56.6 µM (inactive) | > 63.5 µM (inactive) | > 64.6 µM (inactive) | 72.8 µM (inactive) | > 100 µM (inactive) | > 64.3 µM (inactive) | > 100 µM (inactive)

Source: ChEMBL document CHEMBL1201862, “PubChem BioAssay data set” (2004)
